# Reference: patent US20020107193A1, “Therapeutic uses for IP3 receptor-mediated calcium channel modulators” (priority 2000, published 2002)
# What was measured:
# [Ca^2+]i = Intracellular calcium increase caused by glutamate in neurons; type: cell-based; details: XeC treatment; data not shown
# From the text: Therefore, all inducers of NFκB tested here have in common the ability to initiate calcium release through ER IP3 receptors, either through increasing intracellular calcium, activating production of IP3, or both.
# [1] = tested on: IP3 receptors on microsomes; assay: Microsome extract (MSE) effect on cytoplasmic NF-κB binding activity; type: biochemical, rat
# Protocol: Cerebral cortices from adult female Sprague-Dawley rats were homogenized (20 strokes at 300 rpm) with a Teflon homogenizer in ice-cold buffer containing 1 mM EDTA, 0.32 M sucrose, 0.1 mM dithiothreitol and 1 mM HEPES as described previously (Chen et al., 1998, Diabetes 47:874-81) and cytoplasmic and microsome fractions were isolated by differential centrifugation. Briefly, tissue fragments and cellular debris were removed by centrifugation at 500 g for 10 min and supernatants were centrifuged at 20,000 g for 20 min to pellet intact mitochondria and nuclei. The supernatant was then centrifuged at 100,000 g for 1 h in order to obtain the cytoplasmic fraction and the microsomal pellet enriched in endoplasmic reticulum and golgi membranes. Microsome extracts (MSE) were prepared by suspending microsomes in 1:100 v/v ice-cold buffer and centrifuging at 100,000× g for 1 hr. Microsomes were then re-suspended in 1:2 v/v volume buffer and treated as described below. At the end of the treatment, the suspension was centrifuged at 100,000 g for 1 h, and supernatants were used as MSE. For experiments involving incubation of MSE with cytoplasmic extract, 3 μl of MSE were added to 10 μl cytoplasmic extract and mixtures were incubated at room temperature for 1 h.
# […] After 1 h at room temperature, samples were examined for NF-κB binding activity.
# Indeed, the role calcium plays in this paradigm seems to be as an intraluminal signal.
# cardiac cells = details: Hu et al., 1999, cited from earlier work
# CREB = assay: EMSA of CREB binding activity in cultured primary cortical neurons; type: cell-based, rat
# Protocol: Cerebral cortices were removed from embryonic day 18 Sprague-Dawley rats (Harlan, Indianapolis, Ind.). Cells were dissociated as described previously (Mattson et al., 1995, J. Neurochem. 65:1740-1751.) and were seeded into polyethyleneimine-coated 60 mm culture dishes containing Eagle's Minimum Essential Medium supplemented with 26 mM NaHCO3, 40 mM glucose, 20 mM KCl, 1 mM sodium pyruvate, 10% (v/v) heat-inactivated fetal bovine serum (Sigma, St. Louis, Mo.), and 0.001% gentamycin sulfate. After a 3-5 h incubation period to allow for cell attachment, the medium was replaced with 2 ml of Neurobasal Medium with B27 supplements (GIBCO Life Technologies, Grand Island, N.Y.). Previous observations have shown that greater than 80% of the cells that attach in the first few hours after plating will survive longer than 7 days in Neurobasal Medium with no additional neurotrophic factors. Experimental treatments were performed on 7-to-9-day-old neuronal cultures in which there were approximately 5% contaminating glial cells.
# Total cell extracts were prepared as described (Baeuerle and Baltimore, 1988, Cell 53:211-217). Briefly, cells were harvested, washed twice with ice-cold PBS and lysed for 30 min at 4° C. in Totex buffer (20 mM HEPES, pH 7.9, 350 mM NaC1, 20% glycerol, 1% NP-40, 1 mM MgC12, 0.5 mM EDTA, 0.1 mM EGTA, 5 mM DTT, 0.1% PMSF, 1% aprotinin, 4 μg/ml leupeptin). Samples were centrifuged at 14,000× g for 10 min and aliquots of supernatant were collected and stored at −70° C. until taken for assay. The protein content of the extract (supernatant) was measured by Bradford method (BIO-RAD Laboratories, Ercules, Calif., USA). […]
# After 20 min at room temperature, reaction products were separated on a 7% non-denaturing polyacrylamide gel. […] Radioactivity of dried gels was detected by exposure to Kodak X-Omat film and images on the developed film were scanned into a computer using a UMAX 1200s scanner. […]
# The possible involvement of endoplasmic reticulum pools of intracellular calcium regulated by IP3 receptors in controlling basal levels of NF-κB was investigated using Xestospongin C (XeC) a specific membrane permeable modulator of IP3-mediated Ca^2+release (Gafni et al., 1997, Neuron 19:723-733; Hu et al., 1999, J. Biol. Chem. 274:33995-33998), and thapsigargin (Tg), a specific inhibitor of ER calcium/ATPase (Thastrup et al., 1990, Proc. Natl. Acad. Sci. USA 87:2466-2470; Davidson and Varhol, 1995, J. Biol. Chem. 270:11731-11734.). Cultured primary cortical neurons were treated with either 1 μM XeC, 100 nM Tg or vehicle for 6 h and protein extracts were analyzed for NF-κB binding activity by EMSA electrophoresis.
# immune cell line = assay: Proinflammatory cytokine production in an immune cell line; type: cell-based
# IP3 receptor = details: Gafni et al., 1997; cited from earlier work
compound,measurement,setting,value
"C1CCC[C@H]2CCCN3CC[C@@H](CCCCCC[C@@H]4CCCN5CC[C@@H](CC1)O[C@@H]45)O[C@@H]23 [XeC, Xestospongin C]",increase in [Ca^2+]i caused by glutamate,[Ca^2+]i,did not erase the increase
same,NF-κB stimulating activity of microsomes pretreated then given calcium,[1]; XeC pretreatment followed by calcium,produced no NF-κB stimulating activity
same,effect of microsome pretreatment on IP3-induced NF-κB stimulating properties of MSE,[1]; XeC pretreatment of microsomes,completely abolished this effect
same,frequency of calcium oscillations,cardiac cells,decreased the frequency
same,NF-κB activity,cardiac cells; histamine stimulation,parallel decrease
same,"binding activity of CREB, agent alone","CREB; cortical neurons, XeC 30 min pretreatment, 100 ng/ml TNFα 6 h, FIG. 2a",neither TNFα nor XeC alone affected the binding activity of CREB
same,CREB binding activity,"CREB; cultured primary cortical neurons, 6 h, 1 μM XeC or 100 nM Tg, data not shown","slightly augmented CREB binding activity; however, this was not statistically significant"
same,proinflammatory cytokine production,immune cell line,inhibited
same,block of IP3-mediated calcium release,IP3 receptor,potent blockers
